Laboratory results from patent publication US7550469B2, “Heterocyclic amide derivatives and their use as dopamine D3 receptor ligands” (Aventis Pharmaceuticals Inc., priority 2001, dated 2009).
Read-outs that look alike come from different tables or passages of the source.

Molecular target: T1, cloned human dopamine D3 receptors (Homo sapiens, UniProt P35462)
T1 construct: expressed in transfected cells; membrane homogenate
Assay: [N-Methyl-3H]Spiroperidol binding to cloned human dopamine D3 receptors (Protocol 1)
In short: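 Membranes from CHO cells stably expressing cloned human D3 receptor were used for [N-methyl-3H]spiroperidol (60-90 Ci/mmol) binding. Assay buffer was 0.05 M Tris HCl pH 7.7 with 120 mM NaCl, 5 mM KCl, 2 mM CaCl2 and 1 mM MgCl2, optionally 0.1% ascorbic acid; total ligand concentration calculated from added CPM.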

[1] = the 14th table, read-out: D3 Ki
[2] = the 21st table, read-out: D3 Ki

T1 sequence (P35462 whole entry): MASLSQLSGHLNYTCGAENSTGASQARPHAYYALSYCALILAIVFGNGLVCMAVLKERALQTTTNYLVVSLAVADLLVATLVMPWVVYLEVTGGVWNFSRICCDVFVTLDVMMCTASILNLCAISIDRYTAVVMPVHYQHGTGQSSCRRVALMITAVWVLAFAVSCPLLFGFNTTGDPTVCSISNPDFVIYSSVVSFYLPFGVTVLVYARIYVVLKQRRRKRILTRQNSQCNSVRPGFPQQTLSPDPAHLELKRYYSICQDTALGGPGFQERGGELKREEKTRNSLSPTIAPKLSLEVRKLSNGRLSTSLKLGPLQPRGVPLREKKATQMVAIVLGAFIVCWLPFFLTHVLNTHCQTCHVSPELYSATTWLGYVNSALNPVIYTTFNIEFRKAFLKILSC

SMILES | Ki [1] [nM] | Ki [2] [nM] | further results
Cc1ccccc1C(=O)NCCCCCN1CCN(c2csc3cc(C(F)(F)F)ccc23)CC1 [compound 826771] | 6.7 |  | Ki (read-out: D3K1): 6.7 nM
O=C(NCCCCCN1CCN(c2csc3cc(F)ccc23)CC1)c1cccs1 [compound 826774] | 8.25 |  | 
O=C(NCCCCCN1CCN(c2csc3cc(F)ccc23)CC1)c1cccc(Cl)c1 [compound 826775] | 6.24 |  | 
COc1cc(OC)cc(C(=O)NCCCCCN2CCN(c3csc4cc(F)ccc34)CC2)c1 [compound 826776] | 1.27 |  | 
O=C(NCCCCCN1CCN(c2csc3cc(F)ccc23)CC1)c1cccc2ccccc12 [compound 826778] | 2.75 |  | 
O=C(NCCCCCN1CCN(c2csc3cc(F)ccc23)CC1)c1ccc2ccccc2c1 [compound 826779] | 0.984 |  | 
Cc1ccccc1C(=O)NCCCCCN1CCN(c2csc3cc(F)ccc23)CC1 [compound 826781] | 9.94 |  | 
O=C(NCCCCCN1CCN(c2csc3cc(F)ccc23)CC1)c1cc2ccccc2s1 [compound 826783] | 2.7 |  | 
O=C(NCCCCCN1CCN(c2csc3cc(F)ccc23)CC1)c1cc2ccccc2[nH]1 [compound 826784] | 3.28 |  | 
COc1ccc2[nH]c(C(=O)NCCCCCN3CCN(c4csc5cc(F)ccc45)CC3)cc2c1 [compound 826785] | 1.43 |  | 
Cn1c(C(=O)NCCCCCN2CCN(c3csc4cc(F)ccc34)CC2)cc2ccccc21 [compound 826786] | 1.09 |  | 
O=C(NCCCCCN1CCN(c2csc3cc(F)ccc23)CC1)c1ccc2cc[nH]c2c1 [compound 826790] | 5.66 |  | 
CC1=C(C(=O)NCCCCCN2CCN(c3csc4cc(F)ccc34)CC2)Cc2ccccc21 [compound 826792] | 3.91 |  | 
Cn1c(C(=O)NCCCCCN2CCN(c3csc4cc(C(F)(F)F)ccc34)CC2)cc2ccccc21 [compound 826796] | 14.9 |  | Ki (read-out: D3K1): 14.9 nM
O=C(NCCCCCN1CCN(c2csc3cc(C(F)(F)F)ccc23)CC1)c1c[nH]c2ccccc12 [compound 826797] | 36.4 |  | Ki (read-out: D3K1): 36.4 nM
O=C(NCCCCCN1CCN(c2csc3cc(C(F)(F)F)ccc23)CC1)c1ccc2cc[nH]c2c1 [compound 826800] | 27.2 |  | Ki (read-out: D3K1): 27.2 nM
O=C(NCCCCCN1CCN(c2csc3cc(C(F)(F)F)ccc23)CC1)c1n[nH]c2ccccc12 [compound 826801] | 49.8 |  | Ki (read-out: D3K1): 49.8 nM
CC1=C(C(=O)NCCCCCN2CCN(c3csc4cc(C(F)(F)F)ccc34)CC2)Cc2ccccc21 [compound 826802] | 16.9 |  | Ki (Table 2, read-out: D3K1): 16.9 nM
Cc1ccccc1C(=O)NCCCCN1[C@H](C)CN(c2csc3cc(C(F)(F)F)ccc23)C[C@@H]1C [compound 826931] |  | 219 | 
COc1cccc(C(=O)NCCCCN2[C@H](C)CN(c3csc4cc(C(F)(F)F)ccc34)C[C@@H]2C)c1 [compound 826932] |  | 384 | 
C[C@@H]1CN(c2csc3cc(C(F)(F)F)ccc23)C[C@H](C)N1CCCCNC(=O)c1ccc(C(C)(C)C)cc1 [compound 826934] |  | 227 | 
C[C@@H]1CN(c2csc3cc(C(F)(F)F)ccc23)C[C@H](C)N1CCCCNC(=O)c1ccc(C(F)(F)F)cc1 [compound 826936] |  | 96.1 | 
C[C@@H]1CN(c2csc3cc(F)ccc23)C[C@H](C)N1CCCCNC(=O)c1ccc(F)cc1 [compound 826939] |  | 19 | 
COc1ccc(C(=O)NCCCCN2[C@H](C)CN(c3csc4cc(F)ccc34)C[C@@H]2C)cc1OC [compound 826940] |  | 49.2 | 
COc1cccc(C(=O)NCCCCN2[C@H](C)CN(c3csc4cc(F)ccc34)C[C@@H]2C)c1 [compound 826942] |  | 57.4 | 
C[C@@H]1CN(c2csc3cc(F)ccc23)C[C@H](C)N1CCCCNC(=O)c1ccc(C(C)(C)C)cc1 [compound 826944] |  | 128 | 
C[C@@H]1CN(c2csc3cc(F)ccc23)C[C@H](C)N1CCCCNC(=O)c1ccc(C(F)(F)F)cc1 [compound 826946] |  | 35.9 | 
C[C@@H]1CN(c2csc3cc(F)ccc23)C[C@H](C)N1CCCCNC(=O)c1ccncc1 [compound 826947] |  | 47.6 | 

Second part, led by results:

Ki [1] [nM] | Ki [2] [nM] | SMILES | further results
7.8 |  | O=C(NCCCCCN1CCN(c2csc3cc(C(F)(F)F)ccc23)CC1)c1cccc(F)c1 [compound 826772] | Ki (read-out: D3K1): 7.8 nM
11 |  | O=C(NCCCCCN1CCN(c2csc3cc(C(F)(F)F)ccc23)CC1)c1cc2ccccc2s1 [compound 826773] | Ki (read-out: D3K1): 11 nM
4.56 |  | O=C(NCCCCCN1CCN(c2csc3cc(F)ccc23)CC1)c1ccc(OC(F)(F)F)cc1 [compound 826777] | 
4.46 |  | O=C(NCCCCCN1CCN(c2csc3cc(F)ccc23)CC1)c1cccc(C(F)(F)F)c1 [compound 826780] | 
4.55 |  | O=C(NCCCCCN1CCN(c2csc3cc(F)ccc23)CC1)c1cccc(F)c1 [compound 826782] | 
1.19 |  | O=C(NCCCCCN1CCN(c2csc3cc(F)ccc23)CC1)c1c[nH]c2ccccc12 [compound 826787] | 
11.9 |  | O=C(NCCCCCN1CCN(c2csc3cc(F)ccc23)CC1)c1n[nH]c2ccccc12 [compound 826791] | 
3.7 |  | O=C(NCCCCCN1CCN(c2csc3cc(F)ccc23)CC1)c1cc2ccccc2o1 [compound 826793] | 
11.1 |  | O=C(NCCCCCN1CCN(c2csc3cc(C(F)(F)F)ccc23)CC1)c1cc2ccccc2[nH]1 [compound 826794] | Ki (read-out: D3K1): 11.1 nM
13.9 |  | COc1ccc2[nH]c(C(=O)NCCCCCN3CCN(c4csc5cc(C(F)(F)F)ccc45)CC3)cc2c1 [compound 826795] | Ki (read-out: D3K1): 13.9 nM
6.44 |  | O=C(NCCCCCN1CCN(c2csc3cc(C(F)(F)F)ccc23)CC1)c1cccc2[nH]ccc12 [compound 826798] | Ki (read-out: D3K1): 6.44 nM
6.48 |  | O=C(NCCCCCN1CCN(c2csc3cc(C(F)(F)F)ccc23)CC1)c1ccc2[nH]ccc2c1 [compound 826799] | Ki (read-out: D3K1): 6.48 nM
16.9 |  | O=C(NCCCCCN1CCN(c2csc3cc(C(F)(F)F)ccc23)CC1)c1cc2ccccc2o1 [compound 826803] | Ki (Table 2, read-out: D3K1): 16.9 nM
 | 217 | C[C@@H]1CN(c2csc3cc(C(F)(F)F)ccc23)C[C@H](C)N1CCCCNC(=O)c1ccc(F)cc1 [compound 826929] | 
 | 74.7 | COc1ccc(C(=O)NCCCCN2[C@H](C)CN(c3csc4cc(C(F)(F)F)ccc34)C[C@@H]2C)cc1OC [compound 826930] | 
 | 276 | C[C@@H]1CN(c2csc3cc(C(F)(F)F)ccc23)C[C@H](C)N1CCCCNC(=O)c1ccc(-c2ccccc2)cc1 [compound 826933] | 
 | 268 | C[C@@H]1CN(c2csc3cc(C(F)(F)F)ccc23)C[C@H](C)N1CCCCNC(=O)c1cnc2ccccc2n1 [compound 826935] | 
 | 253 | C[C@@H]1CN(c2csc3cc(C(F)(F)F)ccc23)C[C@H](C)N1CCCCNC(=O)c1ccncc1 [compound 826937] | 
 | 175 | C[C@@H]1CN(c2csc3cc(C(F)(F)F)ccc23)C[C@H](C)N1CCCCNC(=O)c1cccnc1Cl [compound 826938] | 
 | 36.3 | Cc1ccccc1C(=O)NCCCCN1[C@H](C)CN(c2csc3cc(F)ccc23)C[C@@H]1C [compound 826941] | 
 | 12.7 | C[C@@H]1CN(c2csc3cc(F)ccc23)C[C@H](C)N1CCCCNC(=O)c1ccc(-c2ccccc2)cc1 [compound 826943] | 
 | 133 | C[C@@H]1CN(c2csc3cc(F)ccc23)C[C@H](C)N1CCCCNC(=O)c1cnc2ccccc2n1 [compound 826945] | 
